Experiments:
clinical = settings: human, in vivo, Mean
Ang2 = settings: patients with metastatic RCC under sunitinib treatment; cited from earlier work

Row | AUC(0-t) (clinical; 3 mg/kg, Sorafenib AUC (AUC0-12)) | Cmax (clinical; 3 mg/kg, Sorafenib Cmax) | Tmax (clinical; 3 mg/kg, Sorafenib Tmax) | AUC(0-t) (clinical; 10 mg/kg, Sorafenib AUC (AUC0-12)) | Cmax (clinical; 10 mg/kg, Sorafenib Cmax) | Tmax (clinical; 10 mg/kg, Sorafenib Tmax) | AUC(0-t) (clinical; 3 mg/kg, Sunitinib AUC (AUC0-24)) | Cmax (clinical; 3 mg/kg, Sunitinib Cmax) | Tmax (clinical; 3 mg/kg, Sunitinib Tmax) | AUC(0-t) (clinical; 10 mg/kg, Sunitinib AUC (AUC0-24)) | Cmax (clinical; 10 mg/kg, Sunitinib Cmax) | Tmax (clinical; 10 mg/kg, Sunitinib Tmax) | Structure (SMILES) | decrease in plasma Ang2 levels (Ang2)
1 | 2580 ng·h/mL | 466 ng/mL | 1.1 h | 3130 ng·h/mL | 559 ng/mL | 1 h | – | – | – | – | – | – | CNC(=O)c1cc(Oc2ccc(NC(=O)Nc3ccc(Cl)c(C(F)(F)F)c3)cc2)ccn1 [Sorafenib, sorafenib] | –
2 | – | – | – | – | – | – | 1300 ng·h/mL | 64.2 ng/mL | 8 h | 1250 ng·h/mL | 61.8 ng/mL | 8.1 h | CCN(CC)CCNC(=O)c1c(C)[nH]c(/C=C2\C(=O)Nc3ccc(F)cc32)c1C [Sunitinib, sunitinib] | 80%
